From ChEMBL document CHEMBL6127124, “Structure-Activity Relationships and Discovery of (S)-5-(tert-Butyl)-11-(difluoromethoxy)-9-methoxy-2-oxo-1,2,5,6-tetrahydropyrido[2',1':2,3]imidazo[4,5-h]quinoline-3-carboxylic Acid (AB-161), a Novel Orally Available and Liver-Centric HBV RNA Destabilizer” (J Med Chem, 2024)

Columns and labels:
Hepatitis B virus [1] = test: Antiviral activity against HBV infected in human HepG2.2.15 cells assessed as reduction in HBsAg level incubated for 6 days with media and compound replenishment on third day by CLIA; format: functional, organism-based; details: HepG2.2.15, 144 h; for EC90: time 6 day
[2] = Cytotoxicity in human HepG2.2.15 cells by Cell Titer-Glo assay; format: toxicity, cell-based, HepG2 2.2.15
[3] = Chemical stability of compound in PBS assessed as compound remaining measured after 6 days by HPLC UV analysis; format: physicochemical; details: buffer, 144 h; time 6 day
[4] = Metabolic stability in human liver microsomes assessed as clearance at 0.3 uM preincubated for 5 mins followed by NADPH addition measured upto 60 mins by LC-MS/MS analysis; format: ADME, Microsome; details: time < 65 min, read-out: CLH
[5] = Metabolic stability in Sprague-Dawley rat liver microsomes assessed as clearance at 0.3 uM preincubated for 5 mins followed by NADPH addition measured upto 60 mins by LC-MS/MS analysis; format: ADME, Microsome; details: time < 65 min, read-out: CLH
[6] = Metabolic stability in CD-1 mouse liver microsomes assessed as clearance at 0.3 uM preincubated for 5 mins followed by NADPH addition measured upto 60 mins by LC-MS/MS analysis; format: ADME, Microsome; details: time < 65 min, read-out: CLH
[7] = AUC (0 to 24 hrs) in CD-1 mouse at 10 mg/kg, po measured for 24 hrs by LC-MS/MS analysis; format: ADME, organism-based; details: in vivo
[8] = Ratio of total drug concentration in liver to plasma in CD-1 mouse at 10 mg/kg, po measured for 12 hrs by LC-MS/MS analysis; format: ADME, organism-based; details: liver and plasma
[9] = Selectivity ratio of drug concentration in liver in CD-1 mouse at 10 mg/kg, po measured for 12 hrs to EC90 for antiviral activity against HBV infected in human HepG2.2.15 cells assessed as reduction in HBsAg level; format: ADME, organism-based; details: in vivo
[10] = Ratio of total drug concentration in liver to plasma in CD-1 mouse at 10 mg/kg, po measured for 24 hrs by LC-MS/MS analysis; format: ADME, organism-based; details: for Ratio: mouse, in vivo, po, 10 mg/kg, 24 h, BLD = below limit of detection; for Kp at 24 h: CD-1, mouse, liver and plasma
[11] = Selectivity ratio of drug concentration in liver in CD-1 mouse at 10 mg/kg, po measured for 24 hrs to EC90 for antiviral activity against HBV infected in human HepG2.2.15 cells assessed as reduction in HBsAg level; format: ADME, organism-based; details: in vivo
[12] = AUC (0 to 24 hrs) in CD-1 mouse at 0.2 mg/kg, po measured for 24 hrs by LC-MS/MS analysis; format: ADME, organism-based; details: in vivo
[13] = Ratio of total drug concentration in liver to plasma in CD-1 mouse at 0.2 mg/kg, po measured for 12 hrs by LC-MS/MS analysis; format: ADME, organism-based; details: liver and plasma
[14] = Selectivity ratio of drug concentration in liver in CD-1 mouse at 0.2 mg/kg, po measured for 12 hrs to EC90 for antiviral activity against HBV infected in human HepG2.2.15 cells assessed as reduction in HBsAg level; format: ADME, organism-based; details: in vivo
[15] = Ratio of total drug concentration in liver to plasma in CD-1 mouse at 0.2 mg/kg, po measured for 24 hrs by LC-MS/MS analysis; format: ADME, organism-based; details: for Ratio: mouse, in vivo, po, 0.2 mg/kg, 24 h, BLD = below limit of detection
[16] = Selectivity ratio of drug concentration in liver in CD-1 mouse at 0.2 mg/kg, po measured for 24 hrs to EC90 for antiviral activity against HBV infected in human HepG2.2.15 cells assessed as reduction in HBsAg level; format: ADME, organism-based; details: in vivo
[17] = Oral bioavailability in CD-1 mouse at 10 mg/kg measured for 24 hrs by LC-MS/MS analysis; format: ADME, organism-based; details: in vivo
Hepatitis B virus [18] = test: Antiviral activity against HBV genotype D in immuno-competent C57BL/6 mouse model of chronic HBV assessed as log10 reduction in HBsAg production at 10 mg/kg, po qd for 7 days measured 24 hrs post-last dose by EIA relative to control; format: functional; details: time 8 day
Hepatitis B virus [19] = test: Antiviral activity against HBV genotype D in immuno-competent C57BL/6 mouse model of chronic HBV assessed as log10 reduction in HBsAg production at 3 mg/kg, po qd for 7 days measured 24 hrs post-last dose by EIA relative to control; format: functional; details: time 8 day
[20] = AUC (0 to 24 hrs) in Sprague-Dawley rat at 5 mg/kg, po measured for 24 hrs by LC-MS/MS analysis; format: ADME, organism-based; details: in vivo
[21] = Oral bioavailability in Sprague-Dawley rat at 5 mg/kg measured for 24 hrs by LC-MS/MS analysis; format: ADME, organism-based; details: in vivo
[22] = Ratio of total drug concentration in liver to plasma in Sprague-Dawley rat at 5 mg/kg, po measured for 24 hrs by LC-MS/MS analysis; format: ADME, organism-based; details: other tissue
[23] = Selectivity ratio of drug concentration in liver in Sprague-Dawley rat at 5 mg/kg, po measured for 24 hrs to EC90 for antiviral activity against HBV infected in human HepG2.2.15 cells assessed as reduction in HBsAg level; format: ADME, organism-based; details: in vivo
Hepatitis B virus [24] = test: Antiviral activity against HBV genotype D in immuno-competent C57BL/6 mouse model of chronic HBV assessed as log10 reduction in HBsAg production at 3 mg/kg, po qd for 7 days measured 24 hrs post-last dose by EIA (reference value: 0.67); format: functional; details: time 8 day
Hepatitis B virus [25] = test: Antiviral activity against HBV genotype D in immuno-competent C57BL/6 mouse model of chronic HBV assessed as log10 reduction in HBsAg production at 10 mg/kg, po qd for 7 days measured 24 hrs post-last dose by EIA (reference value: 0.98); format: functional; details: time 8 day

Row | SMILES | EC50 (Hepatitis B virus [1]) [µM] | EC90 (Hepatitis B virus [1]) [µM] | CC50 [2] [µM] | microsomal CLint at 0.3 µM [4] [µL/min/mg] | microsomal CLint at 0.3 µM [5] [µL/min/mg] | microsomal CLint at 0.3 µM [6] [µL/min/mg] | AUC(0-t) at 24 h [7] [ng·h/mL] | Kp at 12 h [8] | Ratio [9] | Kp at 24 h [10] | Ratio [11] | other results
1 | CC(C)(C)C1Cc2c(cc(OC(F)F)c3ncccc23)-c2[nH]c(=O)c(C(=O)O)c(O)c21 (centres undefined) | 0.0003 | 0.0024 | 48 |  |  |  |  |  |  |  |  | Stability [3]: Unstable
2 | Cn1c2c(cc(C(=O)O)c1=O)[C@H](C(C)(C)C)Cc1c-2nc2c(C(F)(F)F)cc(Cl)cn12 | 0.00024 | 0.0025 | 15 | 7 | 2 | 1 | 786 | 43 | 2002 |  |  | Ratio [10]: Bld; Ratio ([11]; BLD = below limit of detection): Bld; AUC(0-t) at 24 h [12]: 17 ng·h/mL; Kp at 12 h [13]: 24; Ratio [14]: 22; Ratio [15]: Bld; Ratio ([16]; BLD = below limit of detection): Bld
3 | CC(C)(C)C1Cc2c(nc3c(C(F)(F)F)cc(F)cn23)-c2[nH]c(=O)c(C(=O)O)cc21 (centres undefined) | 0.0049 | 0.01 | > 50 |  |  |  |  |  |  |  |  | 
4 | CC(C)(C)[C@@H]1Cc2c(nc3c(C(F)(F)F)cccn23)-c2[nH]c(=O)c(C(=O)O)cc21 | 0.0031 | 0.046 | > 50 | 2 | 8 | 15 | 2150 | 72 | 438 | 92 | 3 | 
5 | CC(C)(C)[C@@H]1Cc2c(nc3c(OC(F)F)cccn23)-c2[nH]c(=O)c(C(=O)O)cc21 | 0.0037 | 0.034 | > 50 | 2 | 33 | 45 | 853 | 133 | 108 |  | 1 | Ratio [10]: Bld
6 | CC(C)(C)C1Cc2c(nc3c(C(F)(F)F)cc(Cl)cn23)-c2c1cc(C(=O)O)c(=O)n2C1CC1 (centres undefined) | 0.0023 | 0.007 | 16 |  |  |  |  |  |  |  |  | 
7 | CC(C)(C)[C@@H]1Cc2c(nc3c(C(F)(F)F)cc(Cl)cn23)-c2[nH]c(=O)c(C(=O)O)cc21 | 0.002 | 0.034 | > 50 | 3 |  | 3 |  |  |  |  |  | 
8 | COc1cccn2c3c(nc12)-c1[nH]c(=O)c(C(=O)O)cc1[C@H](C(C)(C)C)C3 | 0.012 | 0.121 | > 50 | 1 |  | 16 |  | 11 | 3 |  |  | 
9 | COCCCOc1cc2c(nc1OC)-c1[nH]c(=O)c(C(=O)O)c(O)c1[C@H](C(C)(C)C)C2 | 0.0011 | 0.013 | 26 | 57 |  | 12 | 4940 |  |  | 1.3 | 4.6 | Stability [3]: Unstable; bioavailability [17]: 93%
10 | CC(C)(C)[C@@H]1Cc2c(nc3c(OC(F)F)cccn23)-c2[nH]c(=O)c(C(=O)O)c(O)c21 | 0.0015 | 0.014 | 36 | 6 | 279 | 64 | 989 |  |  | 308 | 92 | Stability [3]: Unstable; bioavailability [17]: 27%; log(activity) (Hepatitis B virus [18]): 0.52; log(activity) (Hepatitis B virus [19]): 0.32; AUC(0-t) at 24 h [20]: 209 ng·h/mL; bioavailability [21]: 16%; Ratio [22]: 4397; Ratio [23]: 1008
11 | CC(C)(C)[C@@H]1Cc2c(nc3c(C(F)F)cccn23)-c2[nH]c(=O)c(C(=O)O)cc21 | 0.012 | 0.135 | > 50 | 2 |  | 11 |  |  |  |  |  | 
12 | CC(C)(C)[C@@H]1Cc2c(nc3c(OC(F)F)cc(OC(F)F)cn23)-c2[nH]c(=O)c(C(=O)O)cc21 | 0.0079 | 0.007 | > 50 |  |  |  |  |  |  |  |  | 
13 | Cc1cc(C(F)(F)F)c2nc3c(n2c1)CC(C(C)(C)C)c1cc(C(=O)O)c(=O)[nH]c1-3 (centres undefined) | 0.0008 | 0.011 | 47 |  |  |  |  |  |  |  |  | 
14 | COc1ccn2c3c(nc2c1OC(F)F)-c1[nH]c(=O)c(C(=O)O)cc1[C@H](C(C)(C)C)C3 | 0.0035 | 0.049 | > 50 | 4 | 5 | 3 | 2690 | 24 | 69 | 19 | 1 | AUC(0-t) at 24 h [12]: 44 ng·h/mL; Kp at 12 h [13]: 22; Ratio [14]: 3; Ratio [15]: Bld; Ratio ([16]; BLD = below limit of detection): Bld
15 | COc1ccn2c3c(nc2c1OC)-c1[nH]c(=O)c(C(=O)O)cc1[C@H](C(C)(C)C)C3 | 0.0056 | 0.051 | > 50 |  |  | 1 | 5100 |  |  | 5 | 0.3 | 
16 | CC(C)(C)[C@@H]1Cc2c(nc3c(OC(F)F)cc(F)cn23)-c2[nH]c(=O)c(C(=O)O)cc21 | 0.0037 | 0.054 | > 50 | 1 | 4 | 3 | 2740 | 105 | 1080 | 194 | 203 | AUC(0-t) at 24 h [12]: 67 ng·h/mL; Kp at 12 h [13]: 176; Ratio [14]: 25; Kp at 24 h ([15]; CD-1, mouse, liver and plasma): 101; Ratio [16]: 7; log(activity) (Hepatitis B virus [24]): 0.16; log(activity) (Hepatitis B virus [25]): 0.37
